PubChem BioAssay AID623931 (Vanderbilt Specialized Chemistry Center, 2012)

Key:
[1] = biological target: 5-hydroxytryptamine receptor 2B (Homo sapiens) (UniProt P41595); experiment: PubChem AID 623931; conditions: Ricerca radioligand binding panel, % inhibition; at 10 µM; stronger effect = higher value
PubChem AID 623931 = conditions: Ricerca radioligand binding panel, % inhibition, at 10 µM, stronger effect = higher value

Which results are given for `COc1ccc(C#Cc2ccc(C(=O)N3CCC[C@@H](CO)C3)cc2)cc1`?
inhibition [1]: 71%; inhibition (PubChem AID 623931; GABA-A muscimol site binding): 21%; inhibition (PubChem AID 623931; K-ATP channel binding): 21%; inhibition (PubChem AID 623931; adenosine A3 receptor binding): 44%; inhibition (PubChem AID 623931; dopamine D3 receptor binding): 19%; inhibition (PubChem AID 623931; dopamine transporter DAT binding): 88%; inhibition (PubChem AID 623931; hERG potassium channel binding): 13%; inhibition (PubChem AID 623931; imidazoline I2 binding): 35%; inhibition (PubChem AID 623931; norepinephrine transporter NET binding): 28%; inhibition (PubChem AID 623931; prostanoid EP4 receptor binding): 45%; inhibition (PubChem AID 623931; purinergic P2Y binding): 23%; inhibition (PubChem AID 623931; serotonin transporter SERT binding): 50%; inhibition (PubChem AID 623931; sigma 1 receptor binding): 37%
